For experiment [1], the system named is A. baumannii UNT091. Kind of experiment: MIC by broth microdilution (CLSI), carbapenem-resistant clinical isolate UNT091. The following applies: Acinetobacter baumannii, read-out: MIC. The experiment is classed as cell-based, Acinetobacter baumannii. Here is the method: (§1) Two A. baumannii isolates were used in this example: HUMC1 (BV374) (Spellberg/Luna Laboratory, University of Southern California, Los Angeles, Calif.) and UNT091-1 (BV378) (UNT Health Science Center, Fort Worth, Tex.). The HUMC1 isolate is a hyper-virulent drug-resistant clinical strain isolated from a blood-stream infection. […] The isolates were stored at −80° C. as 20% (v/v) glycerol cultures.
(§2) MICs were determined by the broth microdilution method following the guidelines of the Clinical Laboratory Standards Institute (CLSI) using RPMI supplemented with […] cationic-adjusted Muller Hinton broth (CA-MHB) as assay medium. To prepare the bacterial inocula, 3-5 colonies of bacterial strains from over-night growth on ChromAgar orientation plates (CHROMagar Cat. No. RT412) were suspended in 5 mL saline. The turbidity of the bacterial suspension was adjusted to 0.5 McFarland units (equal to an optical density at 610 nm (OD610) to 0.08-0.1). This suspension was diluted 200-fold in RPMI supplemented with 10% (v/v) FCS to reach a final concentration of […] colony forming units (CFU)/mL and was used to inoculate the microtiter plates.
(§3) Serial 2-fold dilutions of the antibiotics were prepared in a separate 96-well plate polypropylene U-bottom plate (Ratiolab Cat. No. 6018111) in RPMI supplemented with 10% (v/v) FCS at 10-fold of the final test concentrations and 10 μl of the dilutions were transferred to new 96-well polystyrene U-bottom microtiter plates with a parafilm plate cover.
(§4) The plates were then inoculated with 90 μL per well of the prepared bacterial suspensions in using a multichannel pipette (Eppendorf), with the first column containing 4 wells each for growth control (no antibiotic). […] The MIC was recorded as the lowest concentration of the compound that inhibited bacterial growth by visual inspection. MICs were determined at least in duplicates and in the case of variations, the higher values are provided.
(In general: Broth dilution looks for growth in wells or tubes with falling amounts of substance.)

In experiment [2] the test system is A. baumannii UNT093. The experiment can be described thus: Neutropenic lung infection mouse model (CD-1 mice, intranasal infection). It is filed as in vivo. The following applies: UNT093, IV at 2 h post-infection, 24 hours of treatment, doses of <0.5 mg/kg. As for the experimental part:
(§5) After 24 hours of treatment the mice were sacrificed and colony forming units in the lungs were measured.

In experiment [3] the test system is A. baumannii UNT091. The experiment is described as above. The experiment is classed as in vivo. The conditions noted are these: UNT091, IV at 2 h post-infection, 24 hours of treatment, doses of <0.5 mg/kg. As for the experimental part: as §5
The test system of experiment [4] is panel of 293 CRAB strains (A. baumannii). Kind of experiment: MIC by agar dilution on Muller Hinton Agar, panel of 293 CRAB strains. It is filed as cell-based. Here is the method:
The strain panel contained isolates with 10% MDR (n=29), 86% XDR (n=253) and 4% (n=11) PDR phenotypes. Isolates were collected mainly from patients with pneumonia (59%), bloodstream infections (28%), and skin and soft tissue infections (11%) and categorized according to CLSI breakpoints as XDR when […] the antimicrobial classes described by Magiorakos et al. 2011. […] Comparator antibiotics were tested at CLSI standard conditions.
On the technique in general: Agar dilution tests growth on a series of plates holding different concentrations.

In experiment [5] the test system is A. baumannii HUMC1. Kind of experiment: MIC by broth microdilution (CLSI), carbapenem-resistant clinical isolate HUMC1. The experiment is classed as cell-based, Acinetobacter baumannii. The following applies: Acinetobacter baumannii, read-out: MIC. As for the experimental part: as §1, §2, §3, §4
Experiment [6] relates to A. baumannii. Kind of experiment: Liquid MIC determination using RPMI supplemented with FCS, clinical panel. It is filed as cell-based. The conditions noted are these: Acinetobacter baumannii. The source says:
All isolates were resistant to carbapenems.

For experiment [7], the system named is A. baumannii ATCC-17978 expressing FhuE V38P. Kind of experiment: Complementation assay, plasmid mediated expression of FhuE variants in CA-MHB. The experiment is classed as cell-based. The conditions noted are these: ATCC-17978 host, 1 mM IPTG. The source says: See, Cadieux, N., Bradbeer, C. & Kadner, R. J. Sequence changes in the ton box region of BtuB affect its transport activities and interaction with TonB protein. J. Bacteriol. 182, 5954-5961 (2000); Funahashi, T. et al. Identification and characterization of an outer membrane receptor gene in Acinetobacter baumannii required for utilization of desferricoprogen, rhodotorulic acid, and desferrioxamine B as xenosiderophores. Biol. Pharm. Bull. 35, 753-760 (2012); the content of each of which is incorporated herein by reference.

In experiment [8] the test system is A. baumannii ACC00445. Kind of experiment: Neutropenic sepsis mouse model (CD-1 mice, IP infection). It is filed as in vivo. The conditions noted are these: IV at 1 h and 5 h post-infection, 1 mg/kg. The source says:
The CD-1 mice were IP infected with A. baumannii ACC00445 strain in the presence of […].

For experiment [9], the system named is A. baumannii UNT091-1 ΔfhuE mutant. The experiment can be described thus: Neutropenic lung infection in CD-1 mice, wildtype versus ΔfhuE mutant. It is filed as in vivo. The following applies: mice infected with UNT091-1::ΔfhuE, single IV dose at 2 h, burden at 26 hours. As for the experimental part:
FIG. 6 is a graph showing CFU per lung pair in mice inoculated with A. baumannii strains. Neutropenic, female CD-1 mice (5 per group) were inoculated intranasally (t=0 hr) with equivalent titers (6.90 and 6.93 log10 CFU) of A. baumannii UNT091-1 wildtype and A. baumannii UNT091-1 ΔfhuE mutant. The treatment (single IV dose) was administered at 2-hour post-infection and bacterial burden was reported at 26 hours by determining CFU/lung. Furthermore, the effect of RBT was blunted in mice infected with the UNT091-1::ΔfhuE strain supporting the role of fhuE as mediating RBT sensitivity both in vitro and in vivo.

Experiment [10] has as its system A. baumannii ATCC 17978. The experiment can be described thus: MIC in fhuE expressing A. baumannii strains (plasmid-based expression, IPTG inducible). The following applies: for MIC: Acinetobacter baumannii. The experiment is classed as cell-based, Acinetobacter baumannii. The text has this:
The fhuE gene (AWC45_RS10145) from the A. baumannii HUMC1 strain was cloned into the E. coli/A. baumannii shuttle plasmid pVT111 under the control of the isopropyl-beta-D-1-thiogalactopyranoside (IPTG) inducible promoter Ptrc-lacO. The resulting plasmid and the original pVT111 plasmid (control) were transferred to the A. baumannii strain ATCC-17978 by conjugation and transconjugants were selected on LB agar plates containing kanamycin.

For experiment [11], the system named is A. baumannii. The experiment can be described thus: Dose fractionation in a neutropenic mouse model of infection. The following applies: IV q24 h, q12 h or q6 h. The experiment is classed as in vivo. The text has this: FIG. 5 summarizes the results of dose fractionation experiments in a neutropenic mouse model of infection.
[12] abbreviates: Acinetobacter baumannii, iron-chelated nutrient rich MHA (0.1 mM PIH), agar dilution.

≈ marks a conversion by molar mass, not a printed value. Read-outs that look alike come from different tables or passages of the source.

The MIC is the lowest concentration that inhibits growth of the organism. In general, MIC50 refers to the lowest concentration that inhibits either 50% of growth or 50% of the strains tested, depending on the study. Low readings indicate higher susceptibility, high ones lower susceptibility. The MIC90 is an inhibitory concentration at the 90% level, which refers to growth in some studies and to a panel of isolates in others.

Regarding `CO[C@H]1/C=C/O[C@@]2(C)Oc3c(C)c(O)c4c(c3C2=O)C2=NC3(CCN(CC(C)C)CC3)NC2=C(NC(=O)/C(C)=C\C=C\[C@H](C)[C@H](O)[C@@H](C)[C@@H](O)[C@@H](C)[C@H](OC(C)=O)[C@@H]1C)C4=O` [rifabutin], the minimal inhibitory concentration (MIC) is 8 µg/mL (≈ 9.44 µM) in experiment [1] (UNT091, UNT091, CA-MHB (Table 1)); 0.002 µg/mL in experiment [1] (UNT091, UNT091, RPMI plus 10% FCS (Table 1)); 0.002 µg/mL in experiment [1] (UNT091, UNT091 parental strain, RPMI + 10% FCS (Table 2)); 0.002 µg/mL in [5] (HUMC1, HUMC1, RPMI plus 10% FCS (Table 1)); 0.002 µg/mL in [5] (HUMC1, HUMC1 parental strain, RPMI + 10% FCS (Table 2)); 0.002 µg/mL (≈ 0.00236 µM) in experiment [10] (ATCC17978, read-out: rifabutin MIC, FhuE expressing plasmid, CA-MHB 1 mM IPTG). In addition, the MIC in [10] (ATCC17978, read-out: rifabutin MIC, FhuE expressing plasmid, CA-MHB no IPTG) was 0.016 µg/mL (≈ 0.0189 µM); in experiment [10] (ATCC17978, read-out: rifabutin MIC, empty plasmid, CA-MHB 1 mM IPTG), 2 µg/mL (≈ 2.36 µM); in experiment [10] (ATCC17978, read-out: rifabutin MIC, empty plasmid, CA-MHB no IPTG), 1 µg/mL (≈ 1.18 µM); in experiment [10] (ATCC17978, read-out: rifabutin MIC, no plasmid, CA-MHB 1 mM IPTG), 4 µg/mL (≈ 4.72 µM); in experiment [10] (ATCC17978, read-out: rifabutin MIC, no plasmid, CA-MHB no IPTG), 4 µg/mL (≈ 4.72 µM). Moreover, the “effect on colony forming units in the lungs” value in experiment [2] and in experiment [3] was “potent effect” in each case. Also, the results for the MIC50 in [4] (setting [12]) and in experiment [6] were 0.008 µg/mL (≈ 0.00944 µM) and 0.004 µg/mL (≈ 0.00472 µM), respectively. For the same compound, the results for the MIC90 in experiment [4] (setting [12]) and in experiment [6] were 1 µg/mL (≈ 1.18 µM) and 2 µg/mL (≈ 2.36 µM), respectively. The activity entry in experiment [4] (standard MHA) is listed as “only marginal activity”. The “restoration of potent activity by FhuE V38P expression compared to wildtype FhuE” value in experiment [7] is reported as “not able to restore rifabutin potent activity”. For the same compound, the protection against sepsis entry in experiment [8] was “protects against sepsis”. Besides, the “effect on bacterial burden (CFU/lung)” value in experiment [9] is on record as “blunted”. Further, the “MIC lower in fhuE expressing plasmid strain compared to empty plasmid strain” value in experiment [10] (in the presence of IPTG) was 1000 fold. In addition, in experiment [11], the dose fractionation result is listed as “clear dose response relationship”.

Source of the values: patent publication US11833139B2 (priority 2019, dated 2023).
